# From ChEMBL document CHEMBL1131484, “Human growth hormone-releasing hormone hGHRH(1-29)-NH2: systematic structure-activity relationship studies” (J Med Chem, 1998)
# Where “and” joins values, the source holds several entries; their conditions need not be identical. Equal values may be shown once.
# Target: T1, Growth hormone-releasing hormone receptor (Rattus norvegicus) (UniProt Q02644)
# T1 sequence (whole entry): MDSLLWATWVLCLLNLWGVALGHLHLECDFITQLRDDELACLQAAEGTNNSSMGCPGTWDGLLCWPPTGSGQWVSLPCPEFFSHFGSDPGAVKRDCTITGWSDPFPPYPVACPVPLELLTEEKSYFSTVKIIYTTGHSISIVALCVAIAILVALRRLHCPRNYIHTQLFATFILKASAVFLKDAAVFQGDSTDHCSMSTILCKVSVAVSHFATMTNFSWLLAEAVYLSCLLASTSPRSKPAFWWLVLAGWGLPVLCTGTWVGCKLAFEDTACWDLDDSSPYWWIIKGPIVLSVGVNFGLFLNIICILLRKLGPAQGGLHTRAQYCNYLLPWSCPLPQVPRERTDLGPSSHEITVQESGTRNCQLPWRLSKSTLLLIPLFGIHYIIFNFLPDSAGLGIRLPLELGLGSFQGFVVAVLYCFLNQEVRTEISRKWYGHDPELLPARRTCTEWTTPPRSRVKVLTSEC
# Assay: Potency for growth hormone releasing hormone receptor (GHRFR) relative to human GHRH(1-40)OH- in the rat pituitary cell culture assay
# Assay type: functional, cell-based
# Conditions: Pituitary gland cell
row,SMILES,Relative potency
1,CCCC[C@H](NC(=O)[C@@H](NC(=O)[C@H](CC(=O)O)NC(=O)[C@H](CCC(N)=O)NC(=O)[C@H](CC(C)C)NC(=O)[C@H](CC(C)C)NC(=O)[C@H](CCCCN)NC(=O)[C@H](CCCN=C(N)N)NC(=O)[C@H](C)NC(=O)[C@H](CO)NC(=O)[C@H](CC(C)C)NC(=O)[C@H](CCC(N)=O)NC(=O)CNC(=O)[C@H](CC(C)C)NC(=O)[C@@H](NC(=O)[C@H](CCCCN)NC(=O)[C@H](CCCN=C(N)N)NC(=O)[C@H](Cc1ccc(O)cc1)NC(=O)[C@H](CO)NC(=O)[C@H](CC(N)=O)NC(=O)[C@@H](NC(=O)[C@H](Cc1ccccc1)NC(=O)[C@@H](NC(=O)[C@H](C)NC(=O)[C@H](CC(=O)O)NC(=O)[C@H](C)NC(=O)[C@@H](N)Cc1ccc(O)cc1)[C@@H](C)CC)[C@@H](C)O)C(C)C)[C@@H](C)CC)C(=O)N[C@@H](CO)C(=O)N[C@@H](CCCN=C(N)N)C(N)=O,2.38
2,CCCC[C@H]1NC(=O)[C@H]([C@@H](C)CC)NC(=O)[C@@H](NC(=O)[C@H](Cc2c[nH]cn2)NC(=O)[C@H](CC(C)C)NC(=O)[C@H](CC(C)C)NC(=O)[C@H](CCCCN)NC(=O)[C@H](CCCN=C(N)N)NC(=O)[C@H](Cc2ccccc2)NC(=O)[C@@H](NC(=O)[C@H](CC(C)C)NC(=O)[C@H](CCC(N)=O)NC(=O)[C@H](C)NC(=O)[C@H](CC(C)C)NC(=O)[C@@H](NC(=O)[C@H](CCCN=C(N)N)NC(=O)[C@H](CCCN=C(N)N)NC(=O)[C@H](Cc2ccc(O)cc2)NC(=O)[C@H](CO)NC(=O)[C@H](CO)NC(=O)[C@@H](NC(=O)[C@H](Cc2ccccc2)NC(=O)[C@@H](NC(=O)[C@H](C)NC(=O)[C@H](CC(=O)O)NC(=O)[C@H](C)NC(=O)[C@@](C)(N)Cc2c[nH]cn2)[C@@H](C)CC)[C@@H](C)O)[C@@H](C)CC)[C@@H](C)CC)CSSC[C@H](C(N)=O)NC(=O)[C@H](CC(N)=O)NC1=O,1.1
3,CCCC[C@H]1NC(=O)[C@H]([C@@H](C)CC)NC(=O)[C@H](NC(=O)[C@H](Cc2c[nH]cn2)NC(=O)[C@H](CC(C)C)NC(=O)[C@H](CC(C)C)NC(=O)[C@H](CCCCN)NC(=O)[C@H](CCCN=C(N)N)NC(=O)[C@H](Cc2ccccc2)NC(=O)[C@@H](NC(=O)[C@H](CC(C)C)NC(=O)[C@H](CCC(N)=O)NC(=O)[C@H](C)NC(=O)[C@H](CC(C)C)NC(=O)[C@@H](NC(=O)[C@H](CCCN=C(N)N)NC(=O)[C@H](CCCN=C(N)N)NC(=O)[C@H](Cc2ccc(O)cc2)NC(=O)[C@H](CO)NC(=O)[C@H](CO)NC(=O)[C@@H](NC(=O)[C@H](Cc2ccccc2)NC(=O)[C@@H](NC(=O)[C@H](C)NC(=O)[C@H](CC(=O)O)NC(=O)[C@H](C)NC(=O)[C@@](C)(N)Cc2c[nH]cn2)[C@@H](C)CC)[C@@H](C)O)[C@@H](C)CC)[C@@H](C)CC)CSSC[C@@H](C(N)=O)NC(=O)[C@H](CC(N)=O)NC1=O,1.9 and 4.4
4,CCCC[C@H]1NC(=O)[C@H]([C@@H](C)CC)NC(=O)[C@H](NC(=O)[C@H](Cc2c[nH]cn2)NC(=O)[C@H](CC(C)C)NC(=O)[C@H](CC(C)C)NC(=O)[C@H](CCCCN)NC(=O)[C@H](CCCN=C(N)N)NC(=O)[C@H](Cc2ccccc2)NC(=O)[C@@H](NC(=O)[C@H](CC(C)C)NC(=O)[C@H](CCC(N)=O)NC(=O)[C@H](C)NC(=O)[C@H](CC(C)C)NC(=O)[C@@H](NC(=O)[C@H](CCCN=C(N)N)NC(=O)[C@H](CCCN=C(N)N)NC(=O)[C@H](Cc2ccc(O)cc2)NC(=O)[C@H](CO)NC(=O)[C@H](CO)NC(=O)[C@@H](NC(=O)[C@H](Cc2ccccc2)NC(=O)[C@@H](NC(=O)[C@H](C)NC(=O)[C@H](CC(=O)O)NC(=O)[C@H](C)NC(=O)[C@@](C)(N)Cc2c[nH]cn2)[C@@H](C)CC)[C@@H](C)O)[C@@H](C)CC)[C@@H](C)CC)CSSC[C@H](C(N)=O)NC(=O)[C@H](CC(N)=O)NC1=O,1.5
5,CC[C@@H](C)[C@@H](NC(=O)[C@@H](C)NC(=O)[C@@H](CC(=O)O)NC(=O)[C@@H](C)NC(=O)[C@H](N)Cc1ccc(O)cc1)C(=O)N[C@H](Cc1ccccc1)C(=O)N[C@@H](C(=O)N[C@H](CC(N)=O)C(=O)N[C@H](CO)C(=O)N[C@H]1CCC(=O)NCCCC[C@H](C(=O)N[C@@H](CC(C)C)C(=O)NCC(=O)N[C@H](CCC(N)=O)C(=O)N[C@H](CC(C)C)C(=O)N[C@H](CO)C(=O)N[C@H](C)C(=O)N[C@H](CCCN=C(N)N)C(=O)N[C@H](CCCCN)C(=O)N[C@H](CC(C)C)C(=O)N[C@H](CC(C)C)C(=O)N[C@H](CCC(N)=O)C(=O)N[C@H](CC(=O)O)C(=O)N[C@@H](C(=O)N[C@H](CCSC)C(=O)N[C@H](CO)C(=O)N[C@H](CCCN=C(N)N)C(N)=O)[C@H](C)CC)NC(=O)[C@@H](CCCCN)NC(=O)[C@H](CCCN=C(N)N)NC1=O)[C@H](C)O,0.088
6,CC[C@@H](C)[C@@H](NC(=O)[C@@H](CC(=O)O)NC(=O)[C@H]1CCCCNC(=O)CC[C@H](NC(=O)[C@H](CCCN=C(N)N)NC(=O)[C@H](C)NC(=O)[C@H](CO)NC(=O)[C@H](CC(C)C)NC(=O)[C@H](CCC(N)=O)NC(=O)CNC(=O)[C@H](CC(C)C)NC(=O)[C@@H](NC(=O)[C@H](CCCCN)NC(=O)[C@H](CCCN=C(N)N)NC(=O)[C@H](Cc2ccc(O)cc2)NC(=O)[C@H](CO)NC(=O)[C@H](CC(N)=O)NC(=O)[C@@H](NC(=O)[C@H](Cc2ccccc2)NC(=O)[C@@H](NC(=O)[C@H](C)NC(=O)[C@H](CC(=O)O)NC(=O)[C@H](C)NC(=O)[C@@H](N)Cc2ccc(O)cc2)[C@@H](C)CC)[C@@H](C)O)C(C)C)C(=O)N[C@@H](CC(C)C)C(=O)N[C@H](CC(C)C)C(=O)N1)C(=O)N[C@H](CCSC)C(=O)N[C@H](CO)C(=O)N[C@H](CCCN=C(N)N)C(N)=O,4.5
7,CC[C@H](C)[C@H](NC(=O)[C@H](C)NC(=O)[C@H](CC(=O)O)NC(=O)[C@H](C)NC(=O)[C@@H](N)Cc1ccc(O)cc1)C(=O)N[C@@H](Cc1ccccc1)C(=O)N[C@H](C(=O)N[C@@H](CC(N)=O)C(=O)N[C@@H](CO)C(=O)N[C@@H](Cc1ccc(O)cc1)C(=O)N[C@@H](CCCN=C(N)N)C(=O)N[C@@H](CCCCN)C(=O)N[C@H](C(=O)N[C@@H](CC(C)C)C(=O)NCC(=O)N[C@@H](CCC(N)=O)C(=O)N[C@@H](CC(C)C)C(=O)N[C@@H](CO)C(=O)N[C@@H](C)C(=O)N[C@@H](CCCN=C(N)N)C(=O)N[C@@H](CCCCN)C(=O)N[C@@H](CC(C)C)C(=O)N[C@@H](CC(C)C)C(=O)N[C@@H](CCC(N)=O)C(=O)N[C@@H](CC(=O)O)C(=O)N[C@H](C(=O)N[C@@H](CCSC)C(=O)N[C@@H](CO)C(=O)N[C@@H](CCCN=C(N)N)C(=O)N[C@@H](CCC(N)=O)C(=O)N[C@H](CCC(N)=O)C(=O)NCC(=O)N[C@@H](CCC(=O)O)C(=O)N[C@@H](CO)C(=O)N[C@@H](CC(N)=O)C(=O)N[C@@H](CCC(N)=O)C(=O)N[C@@H](CCC(=O)O)C(=O)N[C@@H](CCCN=C(N)N)C(=O)NCC(=O)N[C@@H](C)C(=O)O)[C@@H](C)CC)C(C)C)[C@@H](C)O,1
8,CC[C@H](C)[C@H](NC(=O)[C@H](C)NC(=O)[C@H](CC(=O)O)NC(=O)[C@H](C)NC(=O)[C@@H](N)Cc1ccc(O)cc1)C(=O)N[C@@H](Cc1ccccc1)C(=O)N[C@H](C(=O)N[C@@H](CC(N)=O)C(=O)N[C@@H](CO)C(=O)N[C@@H](Cc1ccc(O)cc1)C(=O)N[C@@H](CCCN=C(N)N)C(=O)N[C@@H](CCCCN)C(=O)N[C@H](C(=O)N[C@@H](CC(C)C)C(=O)NCC(=O)N[C@@H](CCC(N)=O)C(=O)N[C@@H](CC(C)C)C(=O)N[C@@H](CO)C(=O)N[C@@H](C)C(=O)N[C@H](CCCN=C(N)N)C(=O)N[C@H](CCCCN)C(=O)N[C@H](CC(C)C)C(=O)N[C@H](CC(C)C)C(=O)N[C@@H]1CCC(=O)NCCCC[C@@H](C(=O)N[C@@H](CO)C(=O)N[C@@H](CCCN=C(N)N)C(N)=O)NC(=O)[C@H]([C@@H](C)CC)NC(=O)[C@@H](CC(=O)O)NC1=O)C(C)C)[C@@H](C)O,1.3
9,CC[C@H](C)[C@H](NC(=O)[C@H](C)NC(=O)[C@H](CC(=O)O)NC(=O)[C@H](C)NC(=O)[C@@H](N)Cc1ccc(O)cc1)C(=O)N[C@@H](Cc1ccccc1)C(=O)N[C@H](C(=O)N[C@@H](CC(N)=O)C(=O)N[C@@H](CO)C(=O)N[C@@H](Cc1ccc(O)cc1)C(=O)N[C@@H](CCCN=C(N)N)C(=O)N[C@@H](CCCCN)C(=O)N[C@H](C(=O)N[C@@H](CC(C)C)C(=O)NCC(=O)N[C@@H](CCC(N)=O)C(=O)N[C@@H]1CCC(=O)NCCCC[C@@H](C(=O)N[C@H](CCCCN)C(=O)N[C@@H](CC(C)C)C(=O)N[C@@H](CC(C)C)C(=O)N[C@@H](CCC(N)=O)C(=O)N[C@@H](CC(=O)O)C(=O)N[C@H](C(=O)N[C@@H](CCSC)C(=O)N[C@@H](CO)C(=O)N[C@@H](CCCN=C(N)N)C(N)=O)[C@@H](C)CC)NC(=O)[C@H](C)NC(=O)[C@@H](CO)NC1=O)C(C)C)[C@@H](C)O,0.23
10,CC[C@H](C)[C@H](NC(=O)[C@H](C)NC(=O)[C@H](CC(=O)O)NC(=O)[C@H](C)NC(=O)[C@@H](N)Cc1ccc(O)cc1)C(=O)N[C@@H](Cc1ccccc1)C(=O)N[C@H](C(=O)N[C@@H](CC(N)=O)C(=O)N[C@@H](CO)C(=O)N[C@@H](Cc1ccc(O)cc1)C(=O)N[C@@H](CCCN=C(N)N)C(=O)N[C@@H](CCCCN)C(=O)N[C@H](C(=O)N[C@@H](CC(C)C)C(=O)NCC(=O)N[C@H](CCC(N)=O)C(=O)N[C@H](CC(C)C)C(=O)N[C@H](CO)C(=O)N[C@H](C)C(=O)N[C@H](CCCN=C(N)N)C(=O)N[C@H](CCCCN)C(=O)N[C@@H]1CCC(=O)NCCCC[C@@H](C(=O)N[C@H](C(=O)N[C@@H](CCSC)C(=O)N[C@@H](CO)C(=O)N[C@@H](CCCN=C(N)N)C(N)=O)[C@@H](C)CC)NC(=O)[C@H](CCC(N)=O)NC(=O)[C@@H](CC(C)C)NC1=O)C(C)C)[C@@H](C)O,5.3 and 8.8
